{
  "source": "paper PMC7226045",
  "about": "“Ensartinib (X-396) Effectively Modulates Pharmacokinetic Resistance Mediated by ABCB1 and ABCG2 Drug Efflux Transporters and CYP3A4 Biotransformation Enzyme” (Cancers, 2020)",
  "key": {"ABCG2 [1]": {"target": "T1, ABCG2 (Homo sapiens, UniProt Q9UNQ0)", "T1 construct": "expressed in transfected cells; host or cells: MDCKII-ABCG2 (from Dr. Alfred Schinkel, The Netherlands Cancer Institute)", "T1 sequence (Q9UNQ0 1-655)": "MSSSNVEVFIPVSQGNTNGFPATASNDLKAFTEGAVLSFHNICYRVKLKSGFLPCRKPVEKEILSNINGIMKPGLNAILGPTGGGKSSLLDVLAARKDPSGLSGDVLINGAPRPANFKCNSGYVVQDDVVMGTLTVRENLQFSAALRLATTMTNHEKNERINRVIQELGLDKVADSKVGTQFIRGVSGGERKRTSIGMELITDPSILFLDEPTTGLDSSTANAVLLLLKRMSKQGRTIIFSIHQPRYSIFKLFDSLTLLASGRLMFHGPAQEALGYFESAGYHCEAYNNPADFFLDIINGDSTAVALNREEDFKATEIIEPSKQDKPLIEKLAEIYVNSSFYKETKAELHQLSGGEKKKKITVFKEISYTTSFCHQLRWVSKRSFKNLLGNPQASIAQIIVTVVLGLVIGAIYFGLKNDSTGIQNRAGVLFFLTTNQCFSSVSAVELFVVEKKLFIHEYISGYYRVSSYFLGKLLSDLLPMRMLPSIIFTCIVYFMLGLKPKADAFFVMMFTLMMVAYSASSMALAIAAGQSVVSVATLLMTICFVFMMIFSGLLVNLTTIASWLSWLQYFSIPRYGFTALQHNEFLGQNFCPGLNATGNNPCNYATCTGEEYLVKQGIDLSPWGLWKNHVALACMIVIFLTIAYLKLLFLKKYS", "test": "hoechst 33342 accumulation assay in MDCKII-ABCG2 cells", "type": "cell-based", "conditions": "read-out: IC50, inhibition of ABCG2 (hoechst 33342 accumulation)", "description": "Cellular accumulation assay with hoechst 33342 and calcein AM was performed as described previously. Briefly, MDCKII-par, MDCKII-ABCB1, MDCKII-ABCG2, and MDCKII-ABCC1 cells were seeded at densities of 5.0 × 10^4, 5.0 × 10^4, 5.5 × 10^4, and 6.0 × 10^4 cells/well, respectively, on a transparent 96-well plate and grown to full confluence for 24 h under standard conditions. The cells were then washed twice with 1 × PBS, after which was added either a dilution of ensartinib in Opti-MEM (1, 5, 10, 25, or 50 µM) or a specific inhibitor to act as a positive control (1 µM LY335979, 1 µM Ko143, or 25 µM MK-571 for ABCB1, ABCG2, or ABCC1, respectively). Cells were pre-incubated for 10 min, then 8 µM hoechst 33342 (a model substrate for ABCB1 and ABCG2) or 2 µM calcein AM (ABCC1 substrate) diluted in Opti-MEM was quickly added to all wells other than those containing blank samples. The intracellular levels of the substrates were then determined at 1 min intervals for 30 min using a microplate reader (Infinite M200 Pro, Tecan, Männedorf, Switzerland). Fluorescence was monitored in bottom mode using excitation/emission wavelengths of 350/465 and 485/535 nm for hoechst 33342 and calcein AM, respectively."}, "ABCG2 [2]": {"target": "T1, ABCG2", "test": "mitoxantrone accumulation assay (flow cytometry) in MDCKII-ABCG2 cells", "type": "cell-based", "conditions": "1 µM mitoxantrone, 1 h, read-out: IC50, inhibition of ABCG2 (mitoxantrone accumulation)", "description": "The flow-cytometric inhibitory assay with daunorubicin and mitoxantrone was performed with minor modifications as described previously. MDCKII-par, MDCKII-ABCB1, MDCKII-ABCG2, and MDCKII-ABCC1 cell lines were seeded at densities of 22.0 × 10^4, 15.0 × 10^4, 25.0 × 10^4, and 22.0 × 10^4 cells/well, respectively, on a 12-well plate and then incubated for 24 h to reach approximately 70–80% confluence. Further steps including cell washing, the preparation of drug/model inhibitor dilutions, and their addition to cells were performed as described above. After the 10 min pre-incubation period, 2 µM daunorubicin (a substrate of ABCB1/ABCC1) or 1 µM mitoxantrone (ABCG2 substrate) were promptly added to all wells other than those containing background samples, then the plate was incubated for 1 h under standard conditions. The plates were subsequently placed on ice, the cells were washed twice with ice-cold 1× PBS, and 10× trypsin without phenol red was added. After complete trypsinization, the cells were vigorously resuspended in ice-cold 1× PBS containing 2% FBS. Samples were then transferred into test-tubes and kept on ice until their fluorescence could be measured using a flow cytometer (BD FACSCanto II, Allschwil, Switzerland). The excitation/emission wavelengths for daunorubicin and mitoxantrone were 490/565 and 640/670 nm, respectively."}, "CYP2C19": {"target": "T2, CYP2C19 (Homo sapiens, UniProt P33261)", "T2 construct": "purchased Thermo Fisher Scientific; host or cells: insect microsomal fractions", "T2 sequence (P33261 whole entry)": "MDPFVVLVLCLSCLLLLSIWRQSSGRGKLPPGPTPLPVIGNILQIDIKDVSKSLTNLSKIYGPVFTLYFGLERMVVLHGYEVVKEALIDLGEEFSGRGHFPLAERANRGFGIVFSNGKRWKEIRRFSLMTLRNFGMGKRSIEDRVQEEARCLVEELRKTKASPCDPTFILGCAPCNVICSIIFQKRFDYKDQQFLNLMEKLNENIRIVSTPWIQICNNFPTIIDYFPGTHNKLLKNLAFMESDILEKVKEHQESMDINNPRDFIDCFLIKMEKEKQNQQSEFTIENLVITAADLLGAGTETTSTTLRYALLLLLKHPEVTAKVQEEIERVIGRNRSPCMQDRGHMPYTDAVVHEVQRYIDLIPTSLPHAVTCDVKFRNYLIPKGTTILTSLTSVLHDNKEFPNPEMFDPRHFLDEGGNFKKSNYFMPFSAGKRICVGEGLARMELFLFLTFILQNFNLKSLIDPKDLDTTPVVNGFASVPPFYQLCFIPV", "test": "Vivid CYP screening kit, recombinant CYP2C19", "type": "biochemical", "conditions": "recombinant enzyme, 15 min incubation, absolute IC50; read-out: CYP2C19 inhibition IC50", "description": "CYP inhibitory assay was performed as described previously. Experiments were performed with commercial Vivid CYP screening kits containing insect microsomal fractions enriched with a specific human CYP isoform, human CYP reductase, and in some cases, human cytochrome b5. The potential inhibitory activity of ensartinib toward CYP1A2, CYP2B6, CYP2C8, CYP2C9, CYP2C19, CYP2D6, CYP3A4, and CYP3A5 (i.e., all CYP isoforms that drug regulatory authorities recommend for testing of inhibition by new molecular entities) was then examined. Experiments were performed using a kinetic mode in black 96-well plates according to the manufacturer´s instructions. Briefly, 5-point serial dilutions of ensartinib or the model inhibitor recommended by the manufacturer in buffer were transferred into the wells, then a master mix consisting of a CYP isoenzyme with an NADPH regeneration system in buffer was added. After a 10 min pre-incubation, the reaction was initiated by adding a mixture of NADP^+ and the appropriate Vivid substrate, after which fluorescence was measured at 1 min intervals for 60 min using an Infinite M200 Pro microplate reader (Tecan, Männedorf, Switzerland). The enzyme concentration and incubation interval used for data evaluation (15 min) placed the systems within the linear regions of the appropriate reaction velocity curves. […]"}},
  "data": [
    {"smiles": "C[C@@H]1CN(C(=O)c2ccc(NC(=O)c3cc(O[C@H](C)c4c(Cl)ccc(F)c4Cl)c(N)nn3)cc2)C[C@H](C)N1", "note": "[ensartinib, Ensartinib]", "values": [
      {"measurement": "IC50", "setting": "ABCG2 [1]", "result": 9.13, "unit": "µM"},
      {"measurement": "IC50", "setting": "ABCG2 [2]", "result": 28.3, "unit": "µM"},
      {"measurement": "IC50", "setting": "CYP2C19", "result": 14.6, "unit": "µM"}
    ]}
  ]
}
